# Results: patent US10765751B2, “pH sensitive carrier and preparation method thereof, and pH sensitive drug and pH sensitive drug composition each containing the carrier, and method for treating or preventing diseases using the same” (TERUMO KABUSHIKI KAISHA, priority 2012, dated 2020)
# Assays:
# [1] = Leaching test: measurement of a leakage (leaching rate); format: biochemical; conditions: hydrophobic material alone, 37° C., 90 min, mean of three ± SD
# Protocol: The leakage (leaching rate) was determined according to the method described by K. Kono et al., Bioconjugate Chem., 2008 19 1040-1048 and evaluated using an EYPC liposome including Pyranine serving as a fluorescent substance and DPX serving as a quencher.
# 3000 nmol of EYPC dissolved in chloroform was measured and placed in a 10 mL eggplant flask and converted to a thin film by use of a rotary evaporator (BuCHI). 500 μL of a Pyranine solution (Pyranine: 35 mM, DPX: 50 mM, MES: 25 mM, pH 7.4) was added, followed by dispersion with use of an ultrasonic irradiator (USC-J) and passage through a polycarbonate film having a pore size of 100 nm by use of an extruder to obtain a uniform particle size. Using an MES buffer (MES: 25 mM, NaCl: 125 mM, pH 7.4) and a G100 column, an outer water layer was substituted to obtain a dispersion of EYPC liposomes including the fluorescent substance. The concentration of the choline group of the phospholipid was determined by use of the phospholipid C test Wako and was adjusted by use of an MES buffer (MES: 25 mM, NaCl: 125 mM, pH 7.4) in such a way as to obtain 1.0 mmol/L of the phospholipid. […] The DOPE-Chems and DOPE-oleic acid were, respectively, measured in an acetic acid buffer (acetic acid: 25 mM, NaCl: 125 mM).
# With respect to other samples, measurement at a pH of 4.0 to 3.0 was carried out by use of an acetic acid buffer.
# It will be noted that the leakage was calculated in such a way that in case where the EYPC liposome dispersion alone was used, it was taken as 0% and a value obtained in case where 30 μL of a 10-fold diluted Triton-X100 was added was taken as 100%.
# More particularly, the leakage was calculated according to the following equation. In the following equation, a measured fluorescence intensity is represented by L, a fluorescence intensity of a dispersion alone of EYPC liposomes including a fluorescent substance is represented by L0, and a fluorescence intensity in case where Triton-X100 was added is represented by L100. Leakage (%)=(L−L0)/(L100−L0)×100 Fusion Test: Measurement of Fusion (Membrane Fusion)
# [2] = system: RAW cells; assay: Evaluation of cytosolic delivery using a fluorescence-labeled peptide; format: cell-based; conditions: 14 μg of the fluorescence-labeled peptide/well, overnight, three hours post-incubation; FIG. 19, 20
# Protocol: OVA-257-264-Rh was chosen as a model peptide. 140 μg/ml of a fluorescence-labeled peptide solution was prepared by use of PBS passed through a 0.22 μm filter and used for the preparation of a carrier. Cells used were RAW cells, and culture was carried out by use of an incubator (MCO20AIC) set at 5% CO2 and 37° C. The RAW cells were spread on a matsunami glass bottom dish on the day before the charge of the carrier and cultured in a 10% FBS-containing MEM medium.
# After rinsing the cells with PBS, the medium was substituted with 1900 μL of a fresh 10% FBS-containing MEM medium, into which 100 μL of the respective samples was charged. Incubation was continued over 16 to 20 hours and the cells were rinsed at least three times with PBS. Thereafter, 2 mL of a fresh 10% FBS-containing MEM medium was added, following by three hours post-incubation. The cells were rinsed with PBS, followed by substitution with a DMEM-without-Phenol-Red medium and observation of the cells through a fluorescence microscope Axiovert 200M—soft: Axio vision 3.0—light source: Fluo Arc
Compound,Hydrophobic material only Leakage (%) ([1]; pH 5.0),Hydrophobic material only Leakage (%) ([1]; pH 7.4),localisation of fluorescence-labeled peptide in cells (cytosolic delivery) [2]
"CCCOC(=O)c1ccc(O)cc1 [Propyl paraoxybenzoate, propyl paraoxybenzoate]",7.9 ± 0.1,5.4 ± 0.2,
"CCCCCCCC(=O)OCC(O)CO (centres unmarked) [Monocaprylin, Glycerol monocaprylate]",8.5 ± 0.4,4.9 ± 1.8,
CCCCCCCCCCCC(=O)OCC [Ethyl laurate],11.9 ± 1.2,8.7 ± 0.9,
"CCCCCCCCCCCCCCCCO [1-Hexadodecanol, 1-Hexadecanol]",11.0 ± 0.5,9.0 ± 0.9,
CCCCCCCCCCCCCCCC(=O)OC[C@H](O)[C@H]1OC(=O)C(O)=C1O [Ascorbyl palmitate],9.9 ± 1.0,1.7 ± 0.1,
"CCCCCCCCCCCCCCCCCC(=O)OCC(O)CO (centres unmarked) [Monostearin, Glycerol monostearate]",9.6 ± 0.6,7.9 ± 1.0,
CCCCCCCC/C=C\CCCCCCCC(=O)OCC(CO)OC(=O)CCCCCCC/C=C\CCCCCCCC (centres unmarked) [Glycerol dioleate],7.4 ± 0.6,7.2 ± 0.5,
CC(C)=CCC/C(C)=C/CC/C(C)=C/CC/C=C(\C)CC/C=C(\C)CCC=C(C)C [Squalene],9.0 ± 0.5,5.4 ± 0.4,
CCCCCCCCCCCCCCCCCC(=O)OCC(CO)OC(=O)CCCCCCCCCCCCCCCCC (centres unmarked) [Glycerol distearate],11.0 ± 1.4,8.0 ± 0.2,
sorbitan trioleic acid ester [SPAN 85],17.7 ± 1.2,5.2 ± 0.4,
"CCCCCCCC(=O)OCC(COC(=O)CCCCCCC)OC(=O)CCCCCCC [Tricaprylin, tricaprylin]",9.0 ± 1.1,6.8 ± 0.9,
"CCCCCCCC/C=C\CCCCCCCC(=O)OCC(O)CO (centres unmarked) [Monoolein, Glycerol monooleate]",8.3 ± 0.4,6.3 ± 0.4,
CCCCCCCCCCCCO [1-Dodecanol],9.1 ± 0.8,7.9 ± 0.2,
sorbitan palmitic acid ester [SPAN 40],20.8 ± 1.4,14.9 ± 0.8,
"N[C@@H](Cc1c[nH]cn1)C(=O)O [L-Histidine, L-histidine]",8.9 ± 0.5,6.7 ± 0.4,
"CC(C)CCCC(C)CCCC(C)CCCCC(C)CCCC(C)CCCC(C)C (centres unmarked) [Squalane, squalane]",9.4 ± 0.5,7.8 ± 0.6,
"CCCCCCCCCCCCCC(=O)OCC(O)CO (centres unmarked) [Monomyristin, Glycerol monomyristate]",5.4 ± 0.1,3.8 ± 0.3,
sorbitan tristearate [SPAN 65],13.0 ± 0.3,4.2 ± 0.4,
"CCCCCCCCCCCC(=O)OCC(O)CO (centres unmarked) [Monolaurin, Glycerol monolaurate]",5.6 ± 0.4,3.6 ± 0.3,
"CCCCCCCCCC(=O)OCC(O)CO (centres unmarked) [Monocaprin, Glycerol monocaprate]",8.1 ± 0.2,4.0 ± 2.6,

Compound,Hydrophobic material only Leakage (%) ([1]; pH 5.0),Hydrophobic material only Leakage (%) ([1]; pH 7.4),localisation of fluorescence-labeled peptide in cells (cytosolic delivery) [2]
CCCCCCCCCCCCCCCCCCCCO [1-Eicosanol],8.6 ± 0.5,7.6 ± 0.4,
Cyclodextrin,9.0 ± 0.7,6.3 ± 0.6,
"Cc1c(C)c2c(c(C)c1O)CCC(C)(CCCC(C)CCCC(C)CCCC(C)C)O2 (racemic) [α-Tocopherol, DL-α-tocopherol]",8.8 ± 0.6,5.4 ± 0.2,
fluorescence-labeled peptide alone: Fluorescence-labeled peptide: OVA257-264-Rh,,,remained in the endosome
sorbitan monolaurate [SPAN 20],10.1 ± 0.4,5.7 ± 0.7,
"CC(C)CCC[C@@H](C)[C@H]1CC[C@H]2[C@@H]3CC=C4C[C@@H](O)CC[C@]4(C)[C@H]3CC[C@]12C [Cholesterol, cholesterol]",7.6 ± 0.5,4.8 ± 0.1,
"CCCCCCCC/C=C\CCCCCCCC(=O)[O-].[Na+] [Oleic acid, Sodium oleate]",76.0 ± 2.3,2.2 ± 0.1,
CCCCCCCC/C=C\CCCCCCCC(=O)OCC [Ethyl oleate],11.2 ± 1.3,7.9 ± 0.2,
OC[C@H]1O[C@@H](O[C@H]2[C@H](O)[C@@H](O)C(O)O[C@@H]2CO)[C@H](O)[C@@H](O)[C@H]1O (some centres unmarked) [Lactose],8.9 ± 0.2,6.1 ± 0.2,
"CCCCCC(=O)OCC(COC(=O)CCCCC)OC(=O)CCCCC [Tricaproin, tricaproin]",8.4 ± 0.9,6.9 ± 0.9,
O=C(OCc1ccccc1)c1ccccc1 [Benzyl benzoate],9.7 ± 0.5,7.3 ± 2.0,
CCCCO [1-Butanol],11.1 ± 0.5,8.8 ± 0.1,
CCCCCCCCCCCC(=O)O [Lauric acid],14.2 ± 0.4,6.2 ± 0.4,
sorbitan stearic acid ester [SPAN 60],17.5 ± 0.4,7.9 ± 0.3,
N[C@@H](Cc1ccccc1)C(=O)O [L-Phenylalanine],10.7 ± 0.4,7.9 ± 0.5,
"CC(=O)Oc1c(C)c(C)c2c(c1C)CCC(C)(CCC[C@H](C)CCC[C@H](C)CCCC(C)C)O2 (mixture of isomers) [α-Tocopherol acetate, DL-α-tocopherol acetate]",7.0 ± 2.1,5.9 ± 0.2,
CCCCCCCCO [1-Octanol],11.7 ± 0.1,9.0 ± 0.3,
"CCCCCCCCCCCCCCCC(=O)OCC(O)CO (centres unmarked) [Monopalmitin, Glycerol monopalmitate]",8.1 ± 0.7,7.8 ± 2.5,
sorbitan monooleate [SPAN 80],10.0 ± 0.7,5.1 ± 0.5,
